Experimental data reported in patent publication US10538554B2, “Peptides and uses therefor as antiviral agents” (priority 2015, dated 2020).
Bridge positions count the residues as written; N and C are the ends. Square brackets hold non-standard residues; d marks the D form. Peptide text beside a SMILES is read from it.

How the values were obtained:
[1] = system: H9N2 A/Iran/16/2000; settings: 48 h, 500 μM
[2] = system: H1N1 A1/Malaysia/302/1954; settings: A1/Malaysia/302/1954, 48 h; for % inhibition H1N1: 500 μM; for % Inhibition: 1 μM
[3] = system: H3N8 A/Miami/2/63; settings: A/Miami/2/63, 48 h, 500 μM

SMILES | % inhibition H9N2 [1] | % inhibition H1N1 [2] | % inhibition H3N8 [3] | % Inhibition [2]
C[C@H](O)[C@H]1NC(=O)[C@H](N)CSSC[C@H](C(=O)O)NC(=O)[C@@H](CC(N)=O)NC(=O)[C@@H]([C@H](C)O)NC(=O)[C@@H](Cc2ccccc2)NC(=O)[C@@H](CCCNC(=N)N)NC(=O)[C@@H](CO)NC(=O)[C@@H](CCCCN)NC1=O [PSP 17, H-ctksrftnc-OH] (H-[dC][dT][dK][dS][dR][dF][dT][dN][dC]-OH; disulfide 1-9) | 9.1% | 30.8% | 74.2% | 
CC[C@@H](C)[C@H]1NC(=O)[C@@H](Cc2ccccc2)NC(=O)[C@@H](CCCNC(=N)N)NC(=O)[C@@H](CO)NC(=O)[C@@H](CC(N)=O)NC(=O)[C@@H]([C@H](C)O)NC(=O)[C@H](NC(=O)[C@@H](CCCCN)NC(=O)[C@@H](CCCCN)NC(=O)[C@@H](CCCNC(=N)N)NC(=O)[C@H](N)CCCNC(=N)N)CSSC[C@H](C(=O)O)NC(=O)[C@@H](CC(N)=O)NC1=O [PSP II A12, H-rrkkctnsrfinc-OH] (H-[dR][dR][dK][dK][dC][dT][dN][dS][dR][dF][dI][dN][dC]-OH; disulfide 5-13) |  | 53.8% | 70.6% | 
CC[C@@H](C)[C@H]1NC(=O)[C@@H](Cc2ccccc2)NC(=O)[C@@H](CCCNC(=N)N)NC(=O)[C@@H](CO)NC(=O)CNC(=O)[C@@H]([C@H](C)O)NC(=O)[C@H](NC(=O)[C@@H](CCCCN)NC(=O)[C@@H](CCCCN)NC(=O)[C@@H](CCCNC(=N)N)NC(=O)[C@H](N)CCCNC(=N)N)CSSC[C@H](C(=O)O)NC(=O)[C@@H](CC(N)=O)NC1=O [PSP II A6, H-rrkkctGsrfinc-OH] (H-[dR][dR][dK][dK][dC][dT]G[dS][dR][dF][dI][dN][dC]-OH; disulfide 5-13) | 20% | 1.7% | 44.4% | 
CC[C@@H](C)[C@H]1NC(=O)[C@@H](Cc2ccccc2)NC(=O)[C@@H](CCCNC(=N)N)NC(=O)[C@@H](CO)NC(=O)[C@@H]([C@H](C)CC)NC(=O)[C@@H]([C@H](C)O)NC(=O)[C@H](NC(=O)[C@@H](CCCCN)NC(=O)[C@@H](CCCCN)NC(=O)[C@@H](CCCNC(=N)N)NC(=O)[C@H](N)CCCNC(=N)N)CSSC[C@H](C(=O)O)NC(=O)[C@@H](CC(N)=O)NC1=O [PSP II A8, H-rrkkctisrfinc-OH] (H-[dR][dR][dK][dK][dC][dT][dI][dS][dR][dF][dI][dN][dC]-OH; disulfide 5-13) | 20% | 75% | 77.8% | 
CC[C@@H](C)[C@H]1NC(=O)[C@@H](Cc2ccccc2)NC(=O)[C@@H](CCCNC(=N)N)NC(=O)[C@@H](CO)NC(=O)[C@@H]([C@H](C)O)NC(=O)[C@@H]([C@H](C)O)NC(=O)[C@H](NC(=O)[C@@H](CCCCN)NC(=O)[C@@H](CCCCN)NC(=O)[C@@H](CCCNC(=N)N)NC(=O)[C@H](N)CCCNC(=N)N)CSSC[C@H](C(=O)O)NC(=O)[C@@H](CC(N)=O)NC1=O [PSP II A17, H-rrkkcttsrfinc-OH] (H-[dR][dR][dK][dK][dC][dT][dT][dS][dR][dF][dI][dN][dC]-OH; disulfide 5-13) | 80% | 67.3% | 70.6% | 
CC[C@@H](C)[C@H]1NC(=O)[C@@H](Cc2ccccc2)NC(=O)[C@@H](CCCNC(=N)N)NC(=O)[C@@H](CO)NC(=O)[C@@H](CC(C)C)NC(=O)[C@@H]([C@H](C)O)NC(=O)[C@H](NC(=O)[C@@H](CCCCN)NC(=O)[C@@H](CCCCN)NC(=O)[C@@H](CCCNC(=N)N)NC(=O)[C@H](N)CCCNC(=N)N)CSSC[C@H](C(=O)O)NC(=O)[C@@H](CC(N)=O)NC1=O [PSP II A10, H-rrkkctisrfinc-OH] (H-[dR][dR][dK][dK][dC][dT][dL][dS][dR][dF][dI][dN][dC]-OH; disulfide 5-13) | 40% | 63.5% | 88.9% | 
C[C@H](O)[C@H]1NC(=O)[C@H](N)CSSC[C@H](C(=O)O)NC(=O)[C@@H](CC(N)=O)NC(=O)[C@@H](CCCCN)NC(=O)[C@@H](Cc2ccccc2)NC(=O)[C@@H](CCCNC(=N)N)NC(=O)[C@@H](CO)NC(=O)[C@@H](CCCCN)NC1=O [PSP 9, H-ctksrfknc-OH] (H-[dC][dT][dK][dS][dR][dF][dK][dN][dC]-OH; disulfide 1-9) | 31.8% | 17.6% | 62.9% | 
C[C@H](O)[C@H]1NC(=O)[C@H](N)CSSC[C@H](C(=O)O)NC(=O)[C@@H](CC(N)=O)NC(=O)[C@@H](CC(N)=O)NC(=O)[C@@H](Cc2ccccc2)NC(=O)[C@@H](CCCNC(=N)N)NC(=O)[C@@H](CO)NC(=O)[C@@H](CCCCN)NC1=O [PSP 12, H-ctksrfnnc-OH] (H-[dC][dT][dK][dS][dR][dF][dN][dN][dC]-OH; disulfide 1-9) | 27.3% | 32.7% | 70.1% | 
CC[C@@H](C)[C@H]1NC(=O)[C@@H](Cc2ccccc2)NC(=O)[C@@H](CCCNC(=N)N)NC(=O)[C@@H](CO)NC(=O)[C@@H](CCCCN)NC(=O)[C@@H]([C@H](C)O)NC(=O)[C@H](NC(=O)[C@@H](CCCCN)NC(=O)[C@@H](CCCCN)NC(=O)[C@@H](CCCNC(=N)N)NC(=O)[C@H](N)CCCNC(=N)N)CSSC[C@H](C(=O)O)NC(=O)[C@@H](CC(N)=O)NC1=O [PSP II A9, H-rrkkctksrfinc-OH] (H-[dR][dR][dK][dK][dC][dT][dK][dS][dR][dF][dI][dN][dC]-OH; disulfide 5-13) | 50% | 81% | 77.8% | 
CC[C@@H](C)[C@H]1NC(=O)[C@@H](Cc2ccccc2)NC(=O)[C@@H](CCCNC(=N)N)NC(=O)[C@@H](CO)NC(=O)[C@@H](C)NC(=O)[C@@H]([C@H](C)O)NC(=O)[C@H](NC(=O)[C@@H](CCCCN)NC(=O)[C@@H](CCCCN)NC(=O)[C@@H](CCCNC(=N)N)NC(=O)[C@H](N)CCCNC(=N)N)CSSC[C@H](C(=O)O)NC(=O)[C@@H](CC(N)=O)NC1=O [PSP II A1, H-rrkkctasrfinc-OH] (H-[dR][dR][dK][dK][dC][dT][dA][dS][dR][dF][dI][dN][dC]-OH; disulfide 5-13) | 40% |  | 25.9% | 
C[C@H](O)[C@H]1NC(=O)[C@H](N)CSSC[C@H](C(=O)O)NC(=O)[C@@H](CC(N)=O)NC(=O)[C@@H](CCC(N)=O)NC(=O)[C@@H](Cc2ccccc2)NC(=O)[C@@H](CCCNC(=N)N)NC(=O)[C@@H](CO)NC(=O)[C@@H](CCCCN)NC1=O [PSP 14, H-ctksrfqnc-OH] (H-[dC][dT][dK][dS][dR][dF][dQ][dN][dC]-OH; disulfide 1-9) | 18.2% | 23.1% | 62.9% | 
CC[C@@H](C)[C@H]1NC(=O)[C@@H](Cc2ccccc2)NC(=O)[C@@H](CCCNC(=N)N)NC(=O)[C@@H](CO)NC(=O)[C@@H](CCC(=O)O)NC(=O)[C@@H]([C@H](C)O)NC(=O)[C@H](NC(=O)[C@@H](CCCCN)NC(=O)[C@@H](CCCCN)NC(=O)[C@@H](CCCNC(=N)N)NC(=O)[C@H](N)CCCNC(=N)N)CSSC[C@H](C(=O)O)NC(=O)[C@@H](CC(N)=O)NC1=O [PSP II A4, H-rrkkctesrfinc-OH] (H-[dR][dR][dK][dK][dC][dT][dE][dS][dR][dF][dI][dN][dC]-OH; disulfide 5-13) | 60% | 36.2% | 74.1% | 
CC[C@@H](C)[C@H]1NC(=O)[C@@H](Cc2ccccc2)NC(=O)[C@@H](CCCNC(=N)N)NC(=O)[C@@H](CO)NC(=O)[C@@H](CS)NC(=O)[C@@H]([C@H](C)O)NC(=O)[C@H](NC(=O)[C@@H](CCCCN)NC(=O)[C@@H](CCCCN)NC(=O)[C@@H](CCCNC(=N)N)NC(=O)[C@H](N)CCCNC(=N)N)CSSC[C@H](C(=O)O)NC(=O)[C@@H](CC(N)=O)NC1=O [PSP II A2, H-rrkkctcsrfinc-OH] (H-[dR][dR][dK][dK][dC][dT][dC][dS][dR][dF][dI][dN][dC]-OH; disulfide 5-13) |  | 1.7% | 44.4% | 
CSCC[C@H]1NC(=O)[C@@H](Cc2ccccc2)NC(=O)[C@@H](CCCNC(=N)N)NC(=O)[C@@H](CO)NC(=O)[C@@H](CCCCN)NC(=O)[C@@H]([C@H](C)O)NC(=O)[C@H](N)CSSC[C@H](C(=O)O)NC(=O)[C@@H](CC(N)=O)NC1=O [PSP 11, H-ctksrfmnc-OH] (H-[dC][dT][dK][dS][dR][dF][dM][dN][dC]-OH; disulfide 1-9) |  | 5.8% | 67% | 
CC[C@@H](C)[C@H]1NC(=O)[C@@H](CCSC)NC(=O)[C@@H]([C@H](C)O)NC(=O)[C@@H](Cc2ccccc2)NC(=O)[C@@H](Cc2c[nH]c3ccccc23)NC(=O)[C@@H](Cc2c[nH]c3ccccc23)NC(=O)[C@H](NC(=O)[C@H](CCCCN)NC(=O)[C@H](CCCCN)NC(=O)[C@H](CCCNC(=N)N)NC(=O)[C@@H](N)CCCNC(=N)N)CSSC[C@H](C(=O)O)NC(=O)[C@@H](C)NC1=O [PSP VII A11, H-RRKKcwwftmiac-OH] (H-RRKK[dC][dW][dW][dF][dT][dM][dI][dA][dC]-OH; disulfide 5-13) |  |  |  | 9.8%
CC[C@@H](C)[C@H]1NC(=O)[C@@H](Cc2c[nH]cn2)NC(=O)[C@@H]([C@H](C)O)NC(=O)[C@@H](Cc2ccccc2)NC(=O)[C@@H](Cc2c[nH]c3ccccc23)NC(=O)[C@@H](Cc2c[nH]c3ccccc23)NC(=O)[C@H](NC(=O)[C@H](CCCCN)NC(=O)[C@H](CCCCN)NC(=O)[C@H](CCCNC(=N)N)NC(=O)[C@@H](N)CCCNC(=N)N)CSSC[C@H](C(=O)O)NC(=O)[C@@H](C)NC1=O [PSP VII A7, H-RRKKcwwfthiac-OH] (H-RRKK[dC][dW][dW][dF][dT][dH][dI][dA][dC]-OH; disulfide 5-13) |  |  |  | 47.1%
